Results reported in patent publication US7173023B2, “Bicyclic compounds” (Hoffmann-La Roche Inc., priority 2003, dated 2007).

Columns and labels:
human MAO-A = molecular target: T1, human MAO-A (Homo sapiens, UniProt P21397); assay: MAO-A enzymatic activity, spectrophotometric assay (tyramine, Amplex Red); format: biochemical; settings: membranes of EBNA cells transfected with human MAO-A cDNA; 30 min preincubation at 37° C., pH 7.4; substrate tyramine
T1 construct: expressed in transfected cells; host or cells: EBNA cells (transient transfection); cell membranes used
T1 sequence (P21397 1-527): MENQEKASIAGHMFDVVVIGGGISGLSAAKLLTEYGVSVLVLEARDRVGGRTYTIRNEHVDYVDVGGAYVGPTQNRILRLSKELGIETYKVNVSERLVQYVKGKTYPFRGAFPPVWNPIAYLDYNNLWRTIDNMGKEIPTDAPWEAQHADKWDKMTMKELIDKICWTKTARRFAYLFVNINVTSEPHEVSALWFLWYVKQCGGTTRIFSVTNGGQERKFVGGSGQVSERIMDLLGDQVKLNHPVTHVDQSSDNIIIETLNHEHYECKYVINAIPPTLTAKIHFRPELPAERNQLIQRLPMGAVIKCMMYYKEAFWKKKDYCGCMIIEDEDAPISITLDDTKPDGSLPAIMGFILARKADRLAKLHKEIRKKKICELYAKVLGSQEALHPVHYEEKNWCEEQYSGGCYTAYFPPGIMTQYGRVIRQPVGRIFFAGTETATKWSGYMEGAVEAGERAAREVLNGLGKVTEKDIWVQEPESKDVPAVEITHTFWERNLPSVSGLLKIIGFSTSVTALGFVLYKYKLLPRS
Description: (§1) The cDNA's encoding human MAO-A and MAO-B were transiently transfected into EBNA cells using the procedure described by Schlaeger and Christensen [Cytotechnology 15:1–13 (1998)]. After transfection, cells were homogenised by means of a Polytron homogenizer in 20 mM Tris HCl buffer, pH 8.0, containing 0.5 mM EGTA and 0.5 mM phenylmethanesulfonyl fluoride. Cell membranes were obtained by centrifugation at 45,000×g and, after two rinsing step with 20 mM Tris HCl buffer, pH 8.0, containing 0.5 mM EGTA, membranes were eventually re-suspended in the above buffer and aliquots stored at −80° C. until use.
(§2) MAO-A and MAO-B enzymatic activity was assayed in 96-well-plates using a spectrophotometric assay adapted from the method described by Zhou and Panchuk-Voloshina [Analytical Biochemistry 253:169–174 (1997)]. Briefly, membrane aliquots were incubated in 0.1 M potassium phosphate buffer, pH 7.4, for 30 min at 37° C. with or without various concentrations of the compounds. After this period, the enzymatic reaction was started by the addition of the MAO substrate tyramine together with 1 U/ml horse-radish peroxidase (Roche Biochemicals) and 80 μM N-acetyl-3,7,-dihydroxyphenoxazine (Amplex Red, Molecular Probes). The samples were further incubated for 30 min at 37° C. in a final volume of 200 μl and absorbance was then determined at a wavelength of 570 nm using a SpectraMax plate reader (Molecular Devices). Background (non-specific) absorbance was determined in the presence of 10 μM clorgyline for MAO-A or 10 μM L-deprenyl for MAO-B.
(§3) IC50 values were determined from inhibition curves obtained using nine inhibitor concentrations in duplicate, by fitting data to a four parameter logistic equation using a computer program.

human MAO-B = molecular target: T2, human MAO-B (Homo sapiens, UniProt P27338); assay: MAO-B enzymatic activity, spectrophotometric assay (tyramine, Amplex Red); format: biochemical; settings: membranes of EBNA cells transfected with human MAO-B cDNA; 30 min preincubation at 37° C., pH 7.4; substrate tyramine
T2 construct: expressed in transfected cells; host or cells: EBNA cells (transient transfection); cell membranes used
T2 sequence (P27338 1-520): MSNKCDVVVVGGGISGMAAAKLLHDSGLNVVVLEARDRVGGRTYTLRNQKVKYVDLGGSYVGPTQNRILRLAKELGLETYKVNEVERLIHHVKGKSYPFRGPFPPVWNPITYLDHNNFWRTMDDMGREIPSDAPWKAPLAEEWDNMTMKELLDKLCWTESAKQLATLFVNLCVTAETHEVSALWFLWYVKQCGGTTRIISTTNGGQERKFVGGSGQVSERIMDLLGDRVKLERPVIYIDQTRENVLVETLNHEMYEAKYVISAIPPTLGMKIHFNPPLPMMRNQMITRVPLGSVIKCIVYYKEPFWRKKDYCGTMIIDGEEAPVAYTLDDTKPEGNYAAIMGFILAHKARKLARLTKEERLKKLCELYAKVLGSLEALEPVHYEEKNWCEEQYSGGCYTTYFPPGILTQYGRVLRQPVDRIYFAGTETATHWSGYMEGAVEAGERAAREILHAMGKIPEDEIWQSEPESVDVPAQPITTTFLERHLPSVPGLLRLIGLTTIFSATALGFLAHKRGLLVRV
Description: as §1, §2, §3

| Compound | IC50 (human MAO-A) [µM] | IC50 (human MAO-B) [µM] |
| --- | --- | --- |
| NC(=O)C(=O)N1CCc2ccc(OCc3cccc(F)c3)cc2CC1 [Example 3, 2-[7-(3-Fluoro-benzyloxy)-1,2,4,5-tetrahydro-benzo[d]azepin-3-yl]-2-oxo-acetamide] | > 10 | 0.024 |
| CC(=O)N1C=Cc2ccc(OCc3cccc(F)c3)cc2CC1=O [Example 15, 3-Acetyl-8-(3-fluoro-benzyloxy)-1,3-dihydro-benzo[d]azepin-2-one] | > 9.5 | 0.13 |
| CN1C=Cc2ccc(OCc3cccc(F)c3)cc2CC1=O [Example 13, 8-(3-Fluoro-benzyloxy)-3-methyl-1,3-dihydro-benzo[d]azepin-2-one] | 4.6 | 0.15 |
| O=CN1CCc2ccc(OCc3cccc(F)c3)cc2CC1 [Example 6, 7-(3-Fluoro-benzyloxy)-1,2,4,5-tetrahydro-benzo[d]azepine-3-carbaldehyde] | 4.1 | 0.007 |
| COC(=O)N1CCc2ccc(OCc3cccc(F)c3)cc2CC1 [Example 5, 7-(3-Fluoro-benzyloxy)-1,2,4,5-tetrahydro-benzo[d]azepine-3-carboxylic Acid Methyl Ester] | 4.5 | 0.068 |
| NC(=O)N1CCc2ccc(OCc3cccc(F)c3)cc2CC1 [Example 8, 7-(3-Fluoro-benzyloxy)-1,2,4,5-tetrahydro-benzo[d]azepine-3-carboxylic Acid Amide] | > 10 | 0.021 |
| COCC(=O)N1CCc2ccc(OCc3cccc(F)c3)cc2CC1 [Example 2, 1-[7-(3-Fluoro-benzyloxy)-1,2,4,5-tetrahydro-benzo[d]azepin-3-yl]-2-methoxy-ethanone] | 5.5 | 0.073 |
| CC(=O)N1CCc2ccc(OCc3cccc(F)c3)cc2CC1 [Example 1, 1-[7-(3-Fluoro-benzyloxy)-1,2,4,5-tetrahydro-benzo[d]azepin-3-yl]-ethanone] | > 10 | 0.082 |
